ChEMBL document CHEMBL4257221, “Peptides comprising non-natural amino acids and methods of making and using the same” (2016)
Numbered stars: 1 amine (or outer) side, 2 acyl side, 3 side chain; on linkers, the order of the positions; unused ones are H or OH. Square brackets hold non-standard residues; d marks the D form. Peptide text beside a SMILES is read from it. ξ: configuration not given here. X1 = O=C([C@H]1CCC[C@@H]1N[*:1])[*:2]; X2 = O=C([C@H]1CNC[C@@H]1N[*:1])[*:2]; ξβ3hY = NC(CC(=O)O)Cc1ccc(O)cc1; β3hN = NC(=O)C[C@H](N)CC(=O)O; ξβ3hR = N=C(N)NCCCC(N)CC(=O)O; β3hV = CC(C)[C@H](N)CC(=O)O; ξβ3hQ = NC(=O)CCC(N)CC(=O)O; ξβ3hD = NC(CC(=O)O)CC(=O)O; ξβ3hL = CC(C)CC(N)CC(=O)O; ξβ3hK = NCCCCC(N)CC(=O)O; ξβ3hT = CC(O)C(N)CC(=O)O; ξβ3hV = CC(C)C(N)CC(=O)O; βAla = NCCC(=O)O

Columns and labels:
[1] = molecular target: T1, Vasoactive intestinal polypeptide receptor 2 (Homo sapiens, UniProt P41587); experiment: Agonist activity at human VIPR2 expressed in CHOK1 cells assessed as intracellular cAMP accumulation after 60 mins by PathHunter assay; type: functional, cell-based
T1 sequence (P41587 whole entry): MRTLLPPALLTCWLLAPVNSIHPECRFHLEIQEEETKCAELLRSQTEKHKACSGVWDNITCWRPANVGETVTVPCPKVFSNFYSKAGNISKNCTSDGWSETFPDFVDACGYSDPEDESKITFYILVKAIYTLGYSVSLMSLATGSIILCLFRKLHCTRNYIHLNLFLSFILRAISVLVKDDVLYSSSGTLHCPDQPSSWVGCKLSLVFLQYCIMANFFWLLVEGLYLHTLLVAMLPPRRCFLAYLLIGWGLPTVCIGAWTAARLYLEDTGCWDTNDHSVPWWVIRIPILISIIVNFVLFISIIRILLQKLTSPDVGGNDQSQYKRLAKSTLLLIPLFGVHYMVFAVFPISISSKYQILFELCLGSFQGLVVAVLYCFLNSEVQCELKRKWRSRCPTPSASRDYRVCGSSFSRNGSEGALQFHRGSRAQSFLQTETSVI

[2] = molecular target: T2, Vasoactive intestinal polypeptide receptor 1 (Homo sapiens, UniProt P32241); experiment: Agonist activity at human VIPR1 expressed in CHOK1 cells assessed as intracellular cAMP accumulation after 60 mins by PathHunter assay; type: functional, cell-based
T2 sequence (P32241 whole entry): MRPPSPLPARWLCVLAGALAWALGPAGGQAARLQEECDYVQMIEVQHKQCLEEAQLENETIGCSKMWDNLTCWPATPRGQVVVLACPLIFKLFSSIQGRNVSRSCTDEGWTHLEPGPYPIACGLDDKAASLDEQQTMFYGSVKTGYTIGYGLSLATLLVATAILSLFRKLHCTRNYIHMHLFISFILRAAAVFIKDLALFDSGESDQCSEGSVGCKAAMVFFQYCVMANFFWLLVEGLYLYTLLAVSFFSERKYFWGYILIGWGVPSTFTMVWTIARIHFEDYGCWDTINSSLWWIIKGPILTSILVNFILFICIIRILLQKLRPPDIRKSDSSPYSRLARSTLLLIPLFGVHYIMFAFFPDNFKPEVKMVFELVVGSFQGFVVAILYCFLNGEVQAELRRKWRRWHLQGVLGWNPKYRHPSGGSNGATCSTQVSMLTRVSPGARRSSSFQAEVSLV

SMILES	EC50 [1] [nM]	EC50 [2] [nM]
CC(=O)N[C@@H](Cc1cnc[nH]1)C(=O)N[C@H]1CCC[C@@H]1C(=O)N[C@@H](CC(=O)O)C(=O)N[C@@H](C)C(=O)N[C@H]1CCC[C@@H]1C(=O)N[C@@H](Cc1ccccc1)C(=O)N[C@H](C(=O)N[C@@H](CCC(=O)O)C(=O)N[C@H]1CCC[C@@H]1C(=O)NC(CC(=O)N[C@H](C(=O)N[C@@H](CCCCN)C(=O)N[C@@H](CC(C)C)C(=O)N[C@@H](CCCNC(=N)N)C(=O)NC(CCCCN)CC(=O)N[C@@H](CCC(N)=O)C(=O)N[C@@H](CC(C)C)C(=O)N[C@@H](C)C(=O)N[C@@H](C)C(=O)N[C@H]1CNC[C@@H]1C(=O)N[C@@H](CCCCN)C(=O)N[C@@H](Cc1ccc(O)cc1)C(=O)N[C@H]1CCC[C@@H]1C(=O)N[C@@H](CC(N)=O)C(=O)N[C@@H](CC(=O)O)C(=O)N[C@@H](CC(C)C)C(=O)NC(CCCCN)CC(=O)N[C@@H](CCCCN)C(=O)NCC(=O)NCCC(=O)N[C@H](C(=O)O)[C@@H](C)O)[C@@H](C)O)Cc1ccc(O)cc1)[C@@H](C)O (stereo partly drawn) (Ac-H[X1]DA[X1]FTE[X1][ξβ3hY]TKLR[ξβ3hK]QLAA[X2]KY[X1]NDL[ξβ3hK]KG[βAla]T-OH)	> 1000	461
CC(=O)N[C@@H](Cc1cnc[nH]1)C(=O)N[C@H]1CCC[C@@H]1C(=O)N[C@@H](CC(=O)O)C(=O)N[C@@H](C)C(=O)NC(CC(=O)N[C@@H](Cc1ccccc1)C(=O)N[C@H](C(=O)N[C@@H](CCC(=O)O)C(=O)N[C@@H](CC(N)=O)C(=O)N[C@@H](Cc1ccc(O)cc1)C(=O)N[C@H](C(=O)N[C@@H](CCCCN)C(=O)N[C@@H](CC(C)C)C(=O)NC(CCCNC(=N)N)CC(=O)N[C@@H](CCCCN)C(=O)N[C@@H](CCC(N)=O)C(=O)N[C@@H](CC(C)C)C(=O)N[C@@H](C)C(=O)N[C@@H](C)C(=O)N[C@H]1CNC[C@@H]1C(=O)N[C@@H](CCCCN)C(=O)N[C@@H](Cc1ccc(O)cc1)C(=O)N[C@H]1CCC[C@@H]1C(=O)N[C@@H](CC(N)=O)C(=O)N[C@@H](CC(=O)O)C(=O)N[C@@H](CC(C)C)C(=O)NC(CCCCN)CC(=O)N[C@@H](CCCCN)C(=O)NCC(=O)NCCC(=O)N[C@H](C(=O)O)[C@@H](C)O)[C@@H](C)O)[C@@H](C)O)C(C)C (stereo partly drawn) (Ac-H[X1]DA[ξβ3hV]FTENYTKL[ξβ3hR]KQLAA[X2]KY[X1]NDL[ξβ3hK]KG[βAla]T-OH)	1.37	> 1000
CC(=O)N[C@@H](Cc1cnc[nH]1)C(=O)N[C@H]1CCC[C@@H]1C(=O)N[C@@H](CC(=O)O)C(=O)N[C@@H](C)C(=O)NC(CC(=O)N[C@@H](Cc1ccccc1)C(=O)N[C@H](C(=O)N[C@@H](CCC(=O)O)C(=O)N[C@@H](CC(N)=O)CC(=O)N[C@@H](Cc1ccc(O)cc1)C(=O)N[C@H](C(=O)N[C@@H](CCCCN)C(=O)N[C@@H](CC(C)C)C(=O)N[C@@H](CCCNC(=N)N)C(=O)NC(CCCCN)CC(=O)N[C@@H](CCC(N)=O)C(=O)N[C@@H](CC(C)C)C(=O)N[C@@H](C)C(=O)N[C@@H](C)C(=O)N[C@H]1CNC[C@@H]1C(=O)N[C@@H](CCCCN)C(=O)N[C@@H](Cc1ccc(O)cc1)C(=O)N[C@H]1CCC[C@@H]1C(=O)N[C@@H](CC(N)=O)C(=O)N[C@@H](CC(=O)O)C(=O)N[C@@H](CC(C)C)C(=O)NC(CCCCN)CC(=O)N[C@@H](CCCCN)C(=O)NCC(=O)NCCC(=O)N[C@H](C(=O)O)[C@@H](C)O)[C@@H](C)O)[C@@H](C)O)C(C)C (stereo partly drawn) (Ac-H[X1]DA[ξβ3hV]FTE[β3hN]YTKLR[ξβ3hK]QLAA[X2]KY[X1]NDL[ξβ3hK]KG[βAla]T-OH)	1.27	293
CC[C@H](C)[C@H](NC(=O)[C@H](C)NC(=O)[C@H](CC(N)=O)NC(=O)CC(CC(C)C)NC(=O)[C@H](Cc1ccc(O)cc1)NC(=O)[C@H](CCCCN)NC(=O)[C@H](CCCCN)NC(=O)CC(NC(=O)[C@H](C)NC(=O)[C@H](CC(C)C)NC(=O)[C@H](CCC(N)=O)NC(=O)CC(CCCCN)NC(=O)[C@H](CCCNC(=N)N)NC(=O)[C@H](CC(C)C)NC(=O)[C@H](CCCNC(=N)N)NC(=O)CC(NC(=O)[C@H](Cc1ccc(O)cc1)NC(=O)[C@H](CC(N)=O)NC(=O)[C@H](CC(=O)O)NC(=O)CC(NC(=O)[C@H](Cc1ccccc1)NC(=O)[C@@H](NC(=O)[C@H](C)NC(=O)CC(CC(=O)O)NC(=O)[C@H](CO)NC(=O)[C@@H](N)Cc1cnc[nH]1)C(C)C)C(C)O)C(C)O)C(C)C)C(=O)NC(CC(=O)N[C@@H](CC(N)=O)C(=O)O)CC(C)C (stereo partly drawn) (H-HS[ξβ3hD]AVF[ξβ3hT]DNY[ξβ3hT]RLR[ξβ3hK]QLA[ξβ3hV]KKY[ξβ3hL]NAI[ξβ3hL]N-OH)	> 1000	> 1000

The remaining compounds from weak to strong by EC50 [1], led by results:

EC50 [1] [nM]	EC50 [2] [nM]	SMILES
3.52	1530	CC(=O)N[C@@H](Cc1cnc[nH]1)C(=O)N[C@H]1CCC[C@@H]1C(=O)N[C@@H](CC(=O)O)C(=O)N[C@@H](C)C(=O)NC(CC(=O)N[C@@H](Cc1ccccc1)C(=O)N[C@H](C(=O)N[C@@H](CCC(=O)O)C(=O)N[C@@H](CC(N)=O)CC(=O)N[C@@H](Cc1ccc(O)cc1)C(=O)N[C@H](C(=O)N[C@@H](CCCCN)C(=O)N[C@@H](CC(C)C)C(=O)N[C@@H](CCCNC(=N)N)C(=O)N[C@@H](CCCCN)C(=O)NC(CCC(N)=O)CC(=O)N[C@@H](CC(C)C)C(=O)N[C@@H](C)C(=O)N[C@@H](C)C(=O)N[C@H]1CNC[C@@H]1C(=O)N[C@@H](CCCCN)C(=O)N[C@@H](Cc1ccc(O)cc1)C(=O)N[C@H]1CCC[C@@H]1C(=O)N[C@@H](CC(N)=O)C(=O)N[C@@H](CC(=O)O)C(=O)N[C@@H](CC(C)C)C(=O)NC(CCCCN)CC(=O)N[C@@H](CCCCN)C(=O)NCC(=O)NCCC(=O)N[C@H](C(=O)O)[C@@H](C)O)[C@@H](C)O)[C@@H](C)O)C(C)C (stereo partly drawn) (Ac-H[X1]DA[ξβ3hV]FTE[β3hN]YTKLRK[ξβ3hQ]LAA[X2]KY[X1]NDL[ξβ3hK]KG[βAla]T-OH)
1.33	1420	CC(=O)N[C@@H](Cc1cnc[nH]1)C(=O)N[C@H]1CCC[C@@H]1C(=O)N[C@@H](CC(=O)O)C(=O)N[C@@H](C)C(=O)NC(CC(=O)N[C@@H](Cc1ccccc1)C(=O)N[C@H](C(=O)N[C@@H](CCC(=O)O)C(=O)N[C@@H](CC(N)=O)C(=O)N[C@@H](Cc1ccc(O)cc1)C(=O)N[C@H](C(=O)N[C@@H](CCCCN)C(=O)NC(CC(=O)N[C@@H](CCCNC(=N)N)C(=O)N[C@@H](CCCCN)C(=O)N[C@@H](CCC(N)=O)C(=O)N[C@@H](CC(C)C)C(=O)N[C@@H](C)C(=O)N[C@@H](C)C(=O)N[C@H]1CNC[C@@H]1C(=O)N[C@@H](CCCCN)C(=O)N[C@@H](Cc1ccc(O)cc1)C(=O)N[C@H]1CCC[C@@H]1C(=O)N[C@@H](CC(N)=O)C(=O)N[C@@H](CC(=O)O)C(=O)N[C@@H](CC(C)C)C(=O)NC(CCCCN)CC(=O)N[C@@H](CCCCN)C(=O)NCC(=O)NCCC(=O)N[C@H](C(=O)O)[C@@H](C)O)CC(C)C)[C@@H](C)O)[C@@H](C)O)C(C)C (stereo partly drawn) (Ac-H[X1]DA[ξβ3hV]FTENYTK[ξβ3hL]RKQLAA[X2]KY[X1]NDL[ξβ3hK]KG[βAla]T-OH)
1.26	> 1000	CC(=O)N[C@@H](Cc1cnc[nH]1)C(=O)N[C@H]1CCC[C@@H]1C(=O)N[C@@H](CC(=O)O)C(=O)N[C@@H](C)C(=O)NC(CC(=O)N[C@@H](Cc1ccccc1)C(=O)N[C@H](C(=O)N[C@@H](CCC(=O)O)C(=O)N[C@@H](CC(N)=O)CC(=O)N[C@@H](Cc1ccc(O)cc1)C(=O)N[C@H](C(=O)N[C@@H](CCCCN)C(=O)N[C@@H](CC(C)C)C(=O)N[C@@H](CCCNC(=N)N)C(=O)N[C@@H](CCCCN)C(=O)N[C@@H](CCC(N)=O)C(=O)NC(CC(=O)N[C@@H](C)C(=O)N[C@@H](C)C(=O)N[C@H]1CNC[C@@H]1C(=O)N[C@@H](CCCCN)C(=O)N[C@@H](Cc1ccc(O)cc1)C(=O)N[C@H]1CCC[C@@H]1C(=O)N[C@@H](CC(N)=O)C(=O)N[C@@H](CC(=O)O)C(=O)N[C@@H](CC(C)C)C(=O)NC(CCCCN)CC(=O)N[C@@H](CCCCN)C(=O)NCC(=O)NCCC(=O)N[C@H](C(=O)O)[C@@H](C)O)CC(C)C)[C@@H](C)O)[C@@H](C)O)C(C)C (stereo partly drawn) (Ac-H[X1]DA[ξβ3hV]FTE[β3hN]YTKLRKQ[ξβ3hL]AA[X2]KY[X1]NDL[ξβ3hK]KG[βAla]T-OH)
0.859	1420	CC(=O)N[C@@H](Cc1cnc[nH]1)C(=O)N[C@H]1CCC[C@@H]1C(=O)N[C@@H](CC(=O)O)C(=O)N[C@@H](C)C(=O)N[C@H](CC(=O)N[C@@H](Cc1ccccc1)C(=O)N[C@H](C(=O)N[C@@H](CCC(=O)O)C(=O)N[C@@H](CC(N)=O)CC(=O)N[C@@H](Cc1ccc(O)cc1)C(=O)N[C@H](C(=O)N[C@@H](CCCCN)C(=O)N[C@@H](CC(C)C)C(=O)N[C@@H](CCCNC(=N)N)C(=O)N[C@@H](CCCCN)C(=O)N[C@@H](CCC(N)=O)C(=O)N[C@@H](CC(C)C)C(=O)N[C@@H](C)C(=O)N[C@@H](C)C(=O)N[C@H]1CNC[C@@H]1C(=O)N[C@@H](CCCCN)C(=O)N[C@@H](Cc1ccc(O)cc1)C(=O)N[C@H]1CCC[C@@H]1C(=O)N[C@@H](CC(N)=O)C(=O)N[C@@H](CC(=O)O)C(=O)N[C@@H](CC(C)C)C(=O)NC(CCCCN)CC(=O)N[C@@H](CCCCN)C(=O)NCC(=O)NCCC(=O)N[C@H](C(=O)O)[C@@H](C)O)[C@@H](C)O)[C@@H](C)O)C(C)C (stereo partly drawn) (Ac-H[X1]DA[β3hV]FTE[β3hN]YTKLRKQLAA[X2]KY[X1]NDL[ξβ3hK]KG[βAla]T-OH)
